Measurements from ChEMBL document CHEMBL5649169 (ChemMedChem, 2018).

Assays:
[1] = molecular target: Fatty acid CoA ligase Acsl3 (Homo sapiens) (UniProt O95573)
[2] = molecular target: Ataxin-10 (Homo sapiens) (UniProt Q9UBB4)
[3] = molecular target: Bone morphogenetic protein receptor type-2 (Homo sapiens) (UniProt Q13873)
[4] = molecular target: G2/mitotic-specific cyclin-B2 (Homo sapiens) (UniProt O95067)
[5] = molecular target: Chloride intracellular channel protein 1 (Homo sapiens) (UniProt O00299)
[6] = molecular target: Exportin-2 (Homo sapiens) (UniProt P55060)
[7] = molecular target: Casein kinase I isoform delta (Homo sapiens) (UniProt P48730)
[8] = molecular target: Casein kinase II subunit alpha' (Homo sapiens) (UniProt P19784)
[9] = molecular target: Cytochrome c1, heme protein, mitochondrial (Homo sapiens) (UniProt P08574)
[10] = molecular target: 7-dehydrocholesterol reductase (Homo sapiens) (UniProt Q9UBM7)
[11] = molecular target: 3-beta-hydroxysteroid-Delta(8),Delta(7)-isomerase (Homo sapiens) (UniProt Q15125)
[12] = molecular target: Band 4.1-like protein 2 (Homo sapiens) (UniProt O43491)
[13] = molecular target: Peptidyl-prolyl cis-trans isomerase FKBP4 (Homo sapiens) (UniProt Q02790)
[14] = molecular target: GTP-binding protein 4 (Homo sapiens) (UniProt Q9BZE4)
[15] = molecular target: Serine/threonine-protein kinase ICK (Homo sapiens) (UniProt Q9UPZ9)
[16] = molecular target: Phosphatidylinositol 3,4,5-trisphosphate 5-phosphatase 2 (Homo sapiens) (UniProt O15357)
[17] = molecular target: Prelamin-A/C (Homo sapiens) (UniProt P02545)
[18] = molecular target: WASH complex subunit 5 (Homo sapiens) (UniProt Q12768)
[19] = molecular target: Importin subunit alpha-1 (Homo sapiens) (UniProt P52292)
[20] = molecular target: Importin subunit beta-1 (Homo sapiens) (UniProt Q14974)
[21] = molecular target: Keratin, type I cytoskeletal 18 (Homo sapiens) (UniProt P05783)
[22] = molecular target: Dual specificity mitogen-activated protein kinase kinase 1 (Homo sapiens) (UniProt Q02750)
[23] = molecular target: Mitogen-activated protein kinase 8 (Homo sapiens) (UniProt P45983)
[24] = molecular target: DNA replication licensing factor MCM7 (Homo sapiens) (UniProt P33993)
[25] = molecular target: CDK-activating kinase assembly factor MAT1 (Homo sapiens) (UniProt P51948)
[26] = molecular target: Cytochrome c oxidase subunit NDUFA4 (Homo sapiens) (UniProt O00483)
[27] = molecular target: Serine/threonine-protein kinase NLK (Homo sapiens) (UniProt Q9UBE8)
[28] = molecular target: Nuclear pore complex protein Nup205 (Homo sapiens) (UniProt Q92621)
[29] = molecular target: Serine/threonine-protein kinase PAK 6 (Homo sapiens) (UniProt Q9NQU5)
[30] = molecular target: Protein mono-ADP-ribosyltransferase PARP16 (Homo sapiens) (UniProt Q8N5Y8)
[31] = molecular target: Pyruvate dehydrogenase E1 component subunit beta, mitochondrial (Homo sapiens) (UniProt P11177)
[32] = molecular target: Prohibitin-2 (Homo sapiens) (UniProt Q99623)
[33] = molecular target: Phosphatidylinositol transfer protein beta isoform (Homo sapiens) (UniProt P48739)
[34] = molecular target: Protein arginine N-methyltransferase 5 (Homo sapiens) (UniProt O14744)
[35] = molecular target: 26S proteasome non-ATPase regulatory subunit 3 (Homo sapiens) (UniProt O43242)
[36] = molecular target: Proteasome activator complex subunit 1 (Homo sapiens) (UniProt Q06323)
[37] = molecular target: Transcriptional regulator protein Pur-beta (Homo sapiens) (UniProt Q96QR8)
[38] = molecular target: Glycogen phosphorylase, brain form (Homo sapiens) (UniProt P11216)
[39] = molecular target: DNA repair protein RAD50 (Homo sapiens) (UniProt Q92878)
[40] = molecular target: Solute carrier family 35 member E1 (Homo sapiens) (UniProt Q96K37)
[41] = molecular target: Serine/threonine-protein kinase 10 (Homo sapiens) (UniProt O94804)
[42] = molecular target: Tyrosine-protein kinase SYK (Homo sapiens) (UniProt P43405)
[43] = molecular target: Serine/threonine-protein kinase TBK1 (Homo sapiens) (UniProt Q9UHD2)
[44] = molecular target: Gamma-tubulin complex component 2 (Homo sapiens) (UniProt Q9BSJ2)
[45] = molecular target: Unhealthy ribosome biogenesis protein 2 homolog (Homo sapiens) (UniProt Q14146)
[46] = molecular target: Wolframin (Homo sapiens) (UniProt O76024)
Further: assay method not described here.

Sequence of Proteasome activator complex subunit 1 (Homo sapiens) (Q06323 whole entry, one chain of several): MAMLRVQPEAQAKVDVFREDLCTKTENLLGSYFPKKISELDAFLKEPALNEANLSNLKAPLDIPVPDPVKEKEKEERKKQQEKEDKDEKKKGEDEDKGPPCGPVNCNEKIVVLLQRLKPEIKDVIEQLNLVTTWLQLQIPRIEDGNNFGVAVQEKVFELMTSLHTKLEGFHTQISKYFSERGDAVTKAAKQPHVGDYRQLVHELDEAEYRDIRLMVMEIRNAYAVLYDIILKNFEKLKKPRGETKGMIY
Sequence of 7-dehydrocholesterol reductase (Homo sapiens) (Q9UBM7 whole entry): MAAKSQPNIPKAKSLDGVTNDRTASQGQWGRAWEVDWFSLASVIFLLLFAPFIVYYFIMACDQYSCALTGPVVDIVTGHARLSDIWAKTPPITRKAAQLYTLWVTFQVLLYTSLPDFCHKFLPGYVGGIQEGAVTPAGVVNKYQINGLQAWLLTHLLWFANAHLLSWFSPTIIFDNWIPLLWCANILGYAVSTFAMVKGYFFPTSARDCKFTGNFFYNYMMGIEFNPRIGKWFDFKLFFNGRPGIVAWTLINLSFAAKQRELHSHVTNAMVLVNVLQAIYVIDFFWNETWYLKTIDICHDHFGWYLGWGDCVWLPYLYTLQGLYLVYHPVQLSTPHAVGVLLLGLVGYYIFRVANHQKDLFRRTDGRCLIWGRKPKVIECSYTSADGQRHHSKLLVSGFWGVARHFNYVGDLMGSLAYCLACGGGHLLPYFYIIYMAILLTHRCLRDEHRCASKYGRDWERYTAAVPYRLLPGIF
Sequence of Ataxin-10 (Homo sapiens) (Q9UBB4 whole entry): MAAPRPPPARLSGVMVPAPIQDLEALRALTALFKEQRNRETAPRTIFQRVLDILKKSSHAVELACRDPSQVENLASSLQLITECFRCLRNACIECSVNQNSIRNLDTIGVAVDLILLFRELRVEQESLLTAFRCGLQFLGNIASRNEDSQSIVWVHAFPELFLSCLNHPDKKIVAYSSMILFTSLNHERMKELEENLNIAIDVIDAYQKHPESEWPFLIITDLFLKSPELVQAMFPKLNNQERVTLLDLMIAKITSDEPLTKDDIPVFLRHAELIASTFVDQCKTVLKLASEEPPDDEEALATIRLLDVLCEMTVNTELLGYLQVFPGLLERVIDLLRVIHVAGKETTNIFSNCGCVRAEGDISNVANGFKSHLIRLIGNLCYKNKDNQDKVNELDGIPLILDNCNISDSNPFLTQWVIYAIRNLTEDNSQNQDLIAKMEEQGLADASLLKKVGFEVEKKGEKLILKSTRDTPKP
Sequence of Casein kinase I isoform delta (Homo sapiens) (P48730 whole entry, looked up, canonical isoform): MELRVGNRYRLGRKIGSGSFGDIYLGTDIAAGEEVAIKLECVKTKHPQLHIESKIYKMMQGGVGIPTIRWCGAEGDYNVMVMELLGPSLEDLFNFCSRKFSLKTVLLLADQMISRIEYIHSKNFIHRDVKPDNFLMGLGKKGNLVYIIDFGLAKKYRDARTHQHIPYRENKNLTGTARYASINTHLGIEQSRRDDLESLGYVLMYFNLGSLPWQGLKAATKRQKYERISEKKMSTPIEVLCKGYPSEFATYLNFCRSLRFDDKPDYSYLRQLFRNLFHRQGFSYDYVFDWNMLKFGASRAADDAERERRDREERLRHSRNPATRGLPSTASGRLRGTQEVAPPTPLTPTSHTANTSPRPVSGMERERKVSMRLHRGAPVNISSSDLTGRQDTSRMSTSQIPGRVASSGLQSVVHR
Sequence of Phosphatidylinositol 3,4,5-trisphosphate 5-phosphatase 2 (Homo sapiens) (O15357 whole entry): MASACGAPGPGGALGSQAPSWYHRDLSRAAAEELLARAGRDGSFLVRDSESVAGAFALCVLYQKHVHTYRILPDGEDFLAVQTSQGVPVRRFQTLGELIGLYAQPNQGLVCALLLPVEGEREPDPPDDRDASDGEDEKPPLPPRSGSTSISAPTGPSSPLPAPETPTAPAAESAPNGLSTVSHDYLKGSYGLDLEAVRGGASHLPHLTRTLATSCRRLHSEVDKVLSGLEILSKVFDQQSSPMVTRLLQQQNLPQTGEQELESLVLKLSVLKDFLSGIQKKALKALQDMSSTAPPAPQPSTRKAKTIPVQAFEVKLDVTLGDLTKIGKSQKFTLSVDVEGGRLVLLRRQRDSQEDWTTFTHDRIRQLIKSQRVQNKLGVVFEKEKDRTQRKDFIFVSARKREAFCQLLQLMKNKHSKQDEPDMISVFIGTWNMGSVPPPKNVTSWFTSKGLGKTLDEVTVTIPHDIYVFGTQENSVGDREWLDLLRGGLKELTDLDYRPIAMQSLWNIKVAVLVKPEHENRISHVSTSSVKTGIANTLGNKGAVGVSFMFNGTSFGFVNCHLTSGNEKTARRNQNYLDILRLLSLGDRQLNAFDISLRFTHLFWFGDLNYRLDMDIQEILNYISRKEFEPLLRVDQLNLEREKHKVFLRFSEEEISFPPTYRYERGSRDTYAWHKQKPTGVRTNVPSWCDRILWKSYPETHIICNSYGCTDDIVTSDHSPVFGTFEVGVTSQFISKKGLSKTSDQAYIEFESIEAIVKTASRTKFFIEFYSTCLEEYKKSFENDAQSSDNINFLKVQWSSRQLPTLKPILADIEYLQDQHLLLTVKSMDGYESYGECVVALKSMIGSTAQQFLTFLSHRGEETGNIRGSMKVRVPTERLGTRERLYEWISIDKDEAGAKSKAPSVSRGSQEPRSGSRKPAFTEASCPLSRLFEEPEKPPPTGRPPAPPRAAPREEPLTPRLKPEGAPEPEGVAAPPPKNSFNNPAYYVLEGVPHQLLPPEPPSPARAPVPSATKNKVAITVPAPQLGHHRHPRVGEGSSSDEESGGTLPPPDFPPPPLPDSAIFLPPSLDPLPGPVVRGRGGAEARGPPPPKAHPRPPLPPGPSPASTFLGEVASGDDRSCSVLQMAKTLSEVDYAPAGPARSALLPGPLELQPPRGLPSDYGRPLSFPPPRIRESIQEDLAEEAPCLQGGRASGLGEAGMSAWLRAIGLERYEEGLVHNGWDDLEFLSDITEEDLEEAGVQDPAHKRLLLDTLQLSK
Sequence of Pyruvate dehydrogenase E1 component subunit beta, mitochondrial (Homo sapiens) (P11177 whole entry): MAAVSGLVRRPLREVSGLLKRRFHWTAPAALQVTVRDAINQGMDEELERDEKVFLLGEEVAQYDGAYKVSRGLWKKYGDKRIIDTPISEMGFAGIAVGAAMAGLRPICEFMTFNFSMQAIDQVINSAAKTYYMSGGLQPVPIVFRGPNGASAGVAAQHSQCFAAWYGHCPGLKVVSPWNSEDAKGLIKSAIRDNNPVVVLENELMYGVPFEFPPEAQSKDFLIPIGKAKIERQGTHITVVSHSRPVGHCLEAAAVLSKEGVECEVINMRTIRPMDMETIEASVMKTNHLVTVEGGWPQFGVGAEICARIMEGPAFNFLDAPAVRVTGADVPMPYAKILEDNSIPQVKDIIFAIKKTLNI
Sequence of Bone morphogenetic protein receptor type-2 (Homo sapiens) (Q13873 whole entry): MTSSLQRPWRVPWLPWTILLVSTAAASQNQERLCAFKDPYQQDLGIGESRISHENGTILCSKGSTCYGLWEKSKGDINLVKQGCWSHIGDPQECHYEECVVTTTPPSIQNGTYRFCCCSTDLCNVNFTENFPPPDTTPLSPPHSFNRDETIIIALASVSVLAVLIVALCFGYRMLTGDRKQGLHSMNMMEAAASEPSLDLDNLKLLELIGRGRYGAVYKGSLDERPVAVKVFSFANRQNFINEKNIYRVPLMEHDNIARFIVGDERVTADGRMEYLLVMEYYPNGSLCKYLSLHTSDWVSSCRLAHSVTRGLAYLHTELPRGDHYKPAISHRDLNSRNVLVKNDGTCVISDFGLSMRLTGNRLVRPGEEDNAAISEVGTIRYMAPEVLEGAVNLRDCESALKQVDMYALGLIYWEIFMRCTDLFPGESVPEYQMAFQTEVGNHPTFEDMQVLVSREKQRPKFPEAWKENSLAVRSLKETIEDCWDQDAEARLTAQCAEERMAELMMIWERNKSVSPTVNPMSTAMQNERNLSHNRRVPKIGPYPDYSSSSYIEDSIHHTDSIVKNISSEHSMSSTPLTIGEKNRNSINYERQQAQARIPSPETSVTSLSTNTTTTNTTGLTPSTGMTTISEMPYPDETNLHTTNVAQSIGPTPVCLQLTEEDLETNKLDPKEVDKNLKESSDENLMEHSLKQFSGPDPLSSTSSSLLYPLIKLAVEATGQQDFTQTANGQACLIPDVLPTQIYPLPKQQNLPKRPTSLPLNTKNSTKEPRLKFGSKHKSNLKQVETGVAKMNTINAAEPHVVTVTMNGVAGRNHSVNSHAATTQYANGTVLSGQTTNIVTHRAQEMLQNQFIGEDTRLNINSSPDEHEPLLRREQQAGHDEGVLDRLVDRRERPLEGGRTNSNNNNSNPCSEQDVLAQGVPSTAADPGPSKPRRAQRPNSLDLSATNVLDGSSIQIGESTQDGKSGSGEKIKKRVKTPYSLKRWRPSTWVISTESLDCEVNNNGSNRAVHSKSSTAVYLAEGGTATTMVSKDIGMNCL
Sequence of Dual specificity mitogen-activated protein kinase kinase 1 (Homo sapiens) (Q02750 whole entry): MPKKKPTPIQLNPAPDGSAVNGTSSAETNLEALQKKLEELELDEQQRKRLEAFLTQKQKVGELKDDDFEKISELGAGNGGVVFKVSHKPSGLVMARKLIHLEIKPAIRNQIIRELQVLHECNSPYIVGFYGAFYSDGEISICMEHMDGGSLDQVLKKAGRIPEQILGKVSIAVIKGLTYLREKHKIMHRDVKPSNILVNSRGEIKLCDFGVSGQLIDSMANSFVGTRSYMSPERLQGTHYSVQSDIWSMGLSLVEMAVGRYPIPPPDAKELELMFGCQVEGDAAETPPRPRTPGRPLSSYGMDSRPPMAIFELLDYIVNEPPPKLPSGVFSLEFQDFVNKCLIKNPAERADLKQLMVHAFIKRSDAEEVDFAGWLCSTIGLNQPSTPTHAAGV
Sequence of Phosphatidylinositol transfer protein beta isoform (Homo sapiens) (P48739 whole entry, canonical isoform): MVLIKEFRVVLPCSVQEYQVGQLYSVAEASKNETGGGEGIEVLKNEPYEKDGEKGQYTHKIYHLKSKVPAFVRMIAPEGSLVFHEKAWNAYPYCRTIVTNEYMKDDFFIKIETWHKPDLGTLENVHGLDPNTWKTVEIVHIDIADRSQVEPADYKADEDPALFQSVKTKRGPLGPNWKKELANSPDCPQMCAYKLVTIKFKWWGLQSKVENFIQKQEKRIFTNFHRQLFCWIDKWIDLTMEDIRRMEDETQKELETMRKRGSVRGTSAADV

Cc1ccc(C(=O)Nc2cccc(C(F)(F)F)c2)cc1Nc1nc(-c2cccnc2)nc2c1cnn2C
ED50 [1]: 5.73 µM
ED50 [2]: 0.103 µM
ED50 [3]: 3.02 µM
ED50 [4]: 3.13 µM
ED50 [5]: 14.3 µM
ED50 [6]: 1.94 µM
ED50 [7]: 10.4 µM
ED50 [8]: 3.31 µM
ED50 [9]: 0.00055 µM
ED50 [10]: 0.0142 µM
ED50 [11]: 0.0148 µM
ED50 [12]: 0.00541 µM
ED50 [13]: 8.87 µM
ED50 [14]: 2.95 µM
ED50 [15]: 0.0433 µM
ED50 [16]: 0.364 µM
ED50 [17]: 5.41 µM
ED50 [18]: 0.000337 µM
ED50 [19]: 7.33 µM
ED50 [20]: 3.71 µM
ED50 [21]: 7.35 µM
ED50 [22]: 0.00367 µM
ED50 [23]: 3.44 µM
ED50 [24]: 5.39 µM
ED50 [25]: 0.00972 µM
ED50 [26]: 13.5 µM
ED50 [27]: 0.00185 µM
ED50 [28]: 2.26 µM
ED50 [29]: 0.146 µM
ED50 [30]: 0.0016 µM
ED50 [31]: 3.33 µM
ED50 [32]: 7.38 µM
ED50 [33]: 1.71 µM
ED50 [34]: 18.2 µM
ED50 [35]: 6.22 µM
ED50 [36]: 2570 µM
ED50 [37]: 0.00796 µM
ED50 [38]: 0.0395 µM
ED50 [39]: 8.82 µM
ED50 [40]: 0.00439 µM
ED50 [41]: 2.82 µM
ED50 [42]: 3.85 µM
ED50 [43]: 0.0187 µM
ED50 [44]: 0.16 µM
ED50 [45]: 2.88 µM
ED50 [46]: 2.67 µM

Cc1ccc(C(=O)Nc2cccc(C(F)(F)F)c2)cc1Nc1nc(-c2cccnc2)nc2nn(C)cc12
ED50 [1]: 37.2 µM
ED50 [2]: 1470 µM
ED50 [3]: 0.0175 µM
ED50 [4]: 13.5 µM
ED50 [5]: 20.9 µM
ED50 [6]: 0.487 µM
ED50 [7]: 0.0638 µM
ED50 [8]: 110 µM
ED50 [9]: 0.0293 µM
ED50 [10]: 0.0055 µM
ED50 [11]: 0.0123 µM
ED50 [12]: 0.338 µM
ED50 [13]: 0.546 µM
ED50 [14]: 0.593 µM
ED50 [15]: 0.0292 µM
ED50 [16]: 1.01 µM
ED50 [17]: 2.4 µM
ED50 [18]: 3.06 µM
ED50 [19]: 0.00566 µM
ED50 [20]: 0.0534 µM
ED50 [21]: 0.581 µM
ED50 [22]: 0.0574 µM
ED50 [23]: 0.0452 µM
ED50 [24]: 50.3 µM
ED50 [25]: 3.4 µM
ED50 [26]: 70.3 µM
ED50 [27]: 0.0242 µM
ED50 [28]: 1.17 µM
ED50 [29]: 0.526 µM
ED50 [30]: 22200 µM
ED50 [31]: 7.18 µM
ED50 [32]: 0.0686 µM
ED50 [33]: 1.13 µM
ED50 [34]: 3 µM
ED50 [35]: 0.0197 µM
ED50 [36]: 2.59 µM
ED50 [37]: 0.0202 µM
ED50 [38]: 7 µM
ED50 [39]: 1.74 µM
ED50 [40]: 55.3 µM
ED50 [41]: 0.0351 µM
ED50 [42]: 0.216 µM
ED50 [43]: 3.85 µM
ED50 [44]: 0.0401 µM
ED50 [45]: 2.12 µM
ED50 [46]: 2.66 µM
